Test results published in patent US8247351B2, “Insecticidal compositions having improved effect” (Bayer Cropscience AG, priority 2005, dated 2012).

Experiments:
Type in all cases: in vivo
[1] = tested on: Myzus persicae; assay: Myzus persicae test, Example D (sprayed to runoff, ammonium salt boosting)
Method: (§1) Solvent: 7 parts by weight dimethylformamide
(§2) Emulsifier: 2 parts by weight alkylaryl polyglycol ether
(§3) An appropriate preparation of active ingredient is prepared by mixing 1 part by weight of active ingredient with the stated amounts of solvent and emulsifier and diluting the concentrate with water to the desired concentration. For the application with ammonium salts or phosphonium salts, these salts are added in a concentration of 1000 ppm to the spray liquor.
Paprika plants (Capsicum annum) heavily infested by the green peach aphid (Myzus persicae) are treated by being. sprayed to runoff with the preparation of active ingredient at the desired concentration. After the desired time the destruction in % is ascertained. 100% means that all of the animals have been killed; 0% means that no animals have been killed.

[2] = tested on: Aphis gossypii; assay: Aphis gossypii test, Example G (sprayed to runoff, ammonium salt plus penetrant)
Method: as §1, §2
(§4) An appropriate preparation of active ingredient is prepared by mixing 1 part by weight of active ingredient with the stated amounts of solvent and emulsifier and diluting the concentrate with emulsifier-containing water to the desired concentration. For the application with ammonium salts or phosphonium salts and penetrants (rapeseed oil methyl esters 500 EW), they are each added in a concentration of 1000 ppm a.i. to the spray liquor.
(§5) Cotton plants (Gossypium hirsutum) heavily infested by the cotton aphid (Aphis gossypii) are sprayed to runoff with the preparation of active ingredient at the desired concentration.
(§6) After the desired time the destruction in % is ascertained. 100% means that all of the aphids have been killed; 0% means than no aphids were killed.

[3] = tested on: Myzus persicae; assay: Myzus persicae test, Example F (sprayed to runoff, ammonium salt plus penetrant)
Method: as §1, §2
as §4, with “with” for “with emulsifier-containing”, “penetrant” for “penetrants”, “ester” for “esters”, “ppm” for “ppm a.i.”
After the desired time the destruction in % is ascertained. 100% means that all of the animals have been killed; 0% means that no animals have been killed.

[4] = tested on: Aphis gossypii; assay: Aphis gossypii test, Example E (sprayed to runoff, ammonium salt boosting)
Method: as §1, §2
as §3, with “concentrate with emulsifier-containing water to” for “concentrate with water to”
as §5, §6

[5] = 20 ppm active ingredient, +AS (1000 ppm)
[6] = 20 ppm active ingredient, no additive
[7] = 20 ppm active ingredient, +RME (1000 ppm)
[8] = 20 ppm active ingredient, +RME +AS (each 1000 ppm)
[9] = 4 ppm active ingredient, +AS (1000 ppm)
[10] = 4 ppm active ingredient, +RME (1000 ppm)
[11] = 4 ppm active ingredient, +RME +AS (each 1000 ppm)
[12] = 4 ppm active ingredient, no additive
[13] = 0.8 ppm active ingredient, +AS (1000 ppm)
[14] = 0.8 ppm active ingredient, no additive
[15] = 0.8 ppm active ingredient, +RME (1000 ppm)
[16] = 0.8 ppm active ingredient, +RME +AS (each 1000 ppm)

Row | Compound | Degree of destruction/% after 6 days [1, 5] [%] | Degree of destruction/% after 6 days [1, 6] [%] | Degree of destruction/% after 6 days [3, 9] [%] | Degree of destruction/% after 6 days [3, 10] [%] | Degree of destruction/% after 6 days [3, 11] [%] | Degree of destruction/% after 6 days [3, 12] [%] | Degree of destruction/% after 6 days [4, 5] [%] | Degree of destruction/% after 6 days [4, 6] [%] | Degree of destruction/% after 6 days [4, 13] [%] | Degree of destruction/% after 6 days [4, 14] [%] | Degree of destruction/% after 6 days [4, 9] [%] | Degree of destruction/% after 6 days [4, 12] [%] | Degree of destruction/% after 6 days [1, 9] [%] | Degree of destruction/% after 6 days [1, 12] [%] | Degree of destruction/% after 6 days [2, 13] [%] | Degree of destruction/% after 6 days [2, 15] [%] | Degree of destruction/% after 6 days [2, 16] [%] | Degree of destruction/% after 6 days [2, 14] [%] | Degree of destruction/% after 6 days [3, 13] [%] | Degree of destruction/% after 6 days [3, 15] [%] | also measured
1 | Cc1ccc(-c2ccc(Cl)cc2)cc1C1=C(O)C(C)(C)C(C)(C)OC1=O [Example I-10-a-1] | 25 | 0 | 5 | 20 | 55 | 0 | 45 | 0 |  |  |  |  |  |  |  |  |  |  |  |  | Degree of destruction/% after 6 days [2, 5]: 45%; Degree of destruction/% after 6 days [2, 7]: 45%; Degree of destruction/% after 6 days [2, 8]: 70%; Degree of destruction/% after 6 days [2, 6]: 0%; Degree of destruction/% after 6 days [3, 5]: 25%; Degree of destruction/% after 6 days [3, 7]: 65%; Degree of destruction/% after 6 days [3, 8]: 99%; Degree of destruction/% after 6 days [3, 6]: 0%
2 | CO[C@@H]1CCC[C@]2(C1)NC(=O)C(c1c(C)cc(C)cc1C)=C2O [Example I-1-a-6] |  |  |  |  |  |  |  |  | 30 | 15 | 55 | 25 |  |  |  |  |  |  |  |  | Degree of destruction/% after 6 days [2, 9]: 55%; Degree of destruction/% after 6 days [2, 10]: 50%; Degree of destruction/% after 6 days [2, 11]: 80%; Degree of destruction/% after 6 days [2, 12]: 25%
3 | Cc1cc(Br)cc(C)c1-c1c(O)c(C)c(-c2ccccn2)oc1=O [Example I-4-a-3] | 85 | 40 |  |  |  |  |  |  | 40 | 0 | 70 | 25 | 70 | 5 | 40 | 0 | 80 | 0 | 5 | 20 | Degree of destruction/% after 6 days [3, 16]: 98%; Degree of destruction/% after 6 days [3, 14]: 0%
4 | COc1cc(C)cc(C)c1C1=C(O)C2(CCC(OC)CC2)OC1=O (stereo not shown) [Example I-2-a-2] |  |  |  |  |  |  |  |  | 70 | 30 | 95 | 85 | 90 | 65 | 70 | 50 | 95 | 30 | 25 | 15 | Degree of destruction/% after 6 days [1, 13]: 25%; Degree of destruction/% after 6 days [1, 14]: 0%; Degree of destruction/% after 6 days [3, 16]: 99%; Degree of destruction/% after 6 days [3, 14]: 0%
5 | Cc1ccccc1-c1c(O)c(C)c(-c2ccccn2)oc1=O [Example I-4-a-2] |  |  |  |  |  |  |  |  |  |  | 60 | 50 |  |  |  |  |  |  |  |  | Degree of destruction/% after 6 days [2, 9]: 60%; Degree of destruction/% after 6 days [2, 10]: 0%; Degree of destruction/% after 6 days [2, 11]: 65%; Degree of destruction/% after 6 days [2, 12]: 5%
6 | COc1cc(C)cc(Cl)c1C1=C(O)C2(CCC(OC)CC2)OC1=O (stereo not shown) [Example I-2-a-4] | 80 | 60 | 0 | 0 | 70 | 0 |  |  | 45 | 10 | 90 | 70 |  |  | 45 | 45 | 70 | 10 |  |  | 
7 | COCC1CCC2(CC1)NC(=O)C(c1c(C)cc(Cl)cc1Cl)=C2O (stereo not shown) [Example I-1-a-16] |  |  |  |  |  |  | 85 | 75 |  |  | 75 | 40 |  |  |  |  |  |  |  |  | Degree of destruction/% after 6 days [2, 5]: 85%; Degree of destruction/% after 6 days [2, 7]: 95%; Degree of destruction/% after 6 days [2, 8]: 99%; Degree of destruction/% after 6 days [2, 6]: 75%
8 | Cc1cc(Cl)cc(C)c1C1=C(O)C2(CCC3(CC2)OCCO3)NC1=O [Example I-1-a-4] | 98 | 95 | 65 | 95 | 98 | 40 |  |  | 65 | 15 | 85 | 60 | 65 | 40 | 65 | 30 | 80 | 15 | 5 | 0 | Degree of destruction/% after 6 days [3, 16]: 20%; Degree of destruction/% after 6 days [3, 14]: 0%
9 | COc1cc(C)cc(C)c1-c1c(O)sc(-c2ccc(F)cc2)nc1=O [Example I-5-a-1] | 55 | 0 | 5 | 55 | 95 | 0 |  |  |  |  |  |  |  |  |  |  |  |  |  |  | 
10 | CO[C@H]1CC[C@]2(CC1)NC(=O)C(c1c(C)cc(I)cc1C)=C2O [Example I-1-a-7] |  |  |  |  |  |  | 99 | 85 |  |  | 90 | 55 | 80 | 40 | 45 | 50 | 75 | 35 | 10 | 35 | Degree of destruction/% after 6 days [2, 9]: 90%; Degree of destruction/% after 6 days [2, 10]: 85%; Degree of destruction/% after 6 days [2, 11]: 95%; Degree of destruction/% after 6 days [2, 12]: 55%; Degree of destruction/% after 6 days [3, 16]: 75%; Degree of destruction/% after 6 days [3, 14]: 0%
11 | Cc1ccc(-c2ccc(Cl)cc2)cc1C1=C(O)C2(C)CCCCC2OC1=O (stereo not shown) [Example I-10-a-2] |  |  |  |  |  |  | 80 | 10 |  |  | 50 | 0 |  |  |  |  |  |  |  |  | Degree of destruction/% after 6 days [3, 5]: 10%; Degree of destruction/% after 6 days [3, 7]: 0%; Degree of destruction/% after 6 days [3, 8]: 65%; Degree of destruction/% after 6 days [3, 6]: 5%
12 | COC1CCC2(CC1)OC(=O)C(c1c(C)cc(C)cc1C)=C2O (stereo not shown) [Example I-2-a-1] |  |  |  |  |  |  |  |  | 85 | 0 | 95 | 80 | 98 | 90 |  |  |  |  | 65 | 95 | Degree of destruction/% after 6 days [1, 13]: 65%; Degree of destruction/% after 6 days [1, 14]: 20%; Degree of destruction/% after 6 days [3, 16]: 100%; Degree of destruction/% after 6 days [3, 14]: 20%
13 | COC1CCC2(CC1)NC(=O)C(c1cc(C)c(Cl)cc1C)=C2O (stereo not shown) [Example I-1-a-10] | 85 | 40 | 35 | 75 | 85 | 0 | 75 | 40 |  |  | 65 | 20 | 35 | 0 |  |  |  |  |  |  | 
14 | Cc1ccc(-c2ccc(Cl)cc2)cc1C1=C(O)C(C)(C)NC1=O [Example I-1-a-3] | 75 | 60 | 20 | 10 | 90 | 0 | 80 | 20 |  |  | 35 | 5 | 90 | 0 |  |  |  |  |  |  | 
